The values that follow are results of earlier work, collected in patent US10918618B2, “Methods of reducing microbial contamination” (3M INNOVATIVE PROPERTIES COMPANY, priority 2005, dated 2021).

In the case of `[H]/N=C(\N/C(=N/[H])NCCCCCCNC(=N)NC(=N)Nc1ccc(Cl)cc1)Nc1ccc(Cl)cc1` [diacetate, chlorhexidine], the solubility limit was 1.9 g/100 mL.

Regarding `N=C(NCCCCCCNC(=N)NC(=N)Nc1ccc(Cl)cc1)NC(=N)Nc1ccc(Cl)cc1.O=C(O)[C@H](O)[C@@H](O)[C@H](O)[C@H](O)CO.O=C(O)[C@H](O)[C@@H](O)[C@H](O)[C@H](O)CO` [digluconate salt, chlorhexidine digluconate], the solubility limit is listed as 20 g/100 mL.
